In patent US10377800B2, “Myelin oligodendrocyte glycoprotein (MOG) peptide” (APITOPE TECHNOLOGY (BRISTOL) LIMITED, priority 2013, dated 2019):

Experiments:
[1] = system: MOG-specific hybridoma T cell clones; assay: Antigen processing independent presentation: peptides presented by live or p-formaldehyde fixed Mgar cells to T cell hybridoma clones, IL-2 production; assay type: cell-based, mice; details: FIG. 1; for identification as apitope: detailed study, overlapping peptides in region 25-60 displaced by one amino acid
Text: A panel of 15-mer overlapping peptides spanning rhMOGED was synthesized using standard F-moc chemistry. […]
MOG-specific hybridoma T cell clones were generated by immunisation of DR2+ mice. DR2+ mice were immunised with either a pool of MOG overlapping peptides or rhMOGED in complete Freunds adjuvant (CFA). After 10 days, the spleen and draining lymph nodes were removed, CD4+ T cells were purified and restimulated with antigen/CFA in vitro. A week later, T cells were restimulated in vitro with antigen to increase the number of activated antigen-specific cells.
After 3 days, activated T cells were fused with the thymoma cell line BW 5147. Hybridoma clones were then selected using HAT selection medium and screened for peptide specificity by IL-2 ELISA.
Live or p-formaldehyde fixed Mgar (HLA-DR2+ve) cells were incubated with peptides in serum or in serum alone, together with T cells for 48 hours. The T cell proliferative response was measured by IL-2 production.

[2] = administered in solution; Anderton and Wraith (1998); cited from earlier work
[3] = target: T1, I-A^S (Mus musculus, UniProt P06345+P14437); details: cited from earlier work
T1 sequence (P14437 1-233): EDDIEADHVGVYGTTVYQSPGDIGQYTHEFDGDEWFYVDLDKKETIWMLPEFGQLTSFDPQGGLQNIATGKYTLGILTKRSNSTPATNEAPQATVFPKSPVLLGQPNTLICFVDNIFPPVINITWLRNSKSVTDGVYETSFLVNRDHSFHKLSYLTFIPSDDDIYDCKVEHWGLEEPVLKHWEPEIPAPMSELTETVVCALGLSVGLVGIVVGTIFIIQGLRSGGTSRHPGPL
T1 sequence (P06345 28-263): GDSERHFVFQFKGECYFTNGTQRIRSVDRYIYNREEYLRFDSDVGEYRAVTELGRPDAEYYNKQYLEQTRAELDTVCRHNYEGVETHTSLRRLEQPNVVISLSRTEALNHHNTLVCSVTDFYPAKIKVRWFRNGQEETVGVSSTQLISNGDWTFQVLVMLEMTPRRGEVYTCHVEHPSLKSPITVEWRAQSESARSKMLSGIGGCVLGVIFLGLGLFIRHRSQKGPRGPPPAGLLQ

[4] = system: DR2 transgenic mice; assay: MOG-induced EAE model; assay type: in vivo; details: for Incidence (EAE) / Mean day of onset (EAE): Pertussis toxin day 0 and 2
Experimental: (§1) To test the capacity of ROK5 to prevent MOG-induced EAE in HLA-DR2 transgenic mice, the disease model was established in this strain of mice. To induce the disease, the encephalitogenic MOG peptide, mouse MOG 35-55 (mMOG35-55) was used. Then, ROK5 was tested in EAE prevention experiments as follows:
Two groups of DR2 transgenic mice were setup, at day zero, animals (n=7) in group “100 μg” received 100 μg mMOG35-55 in Complete Freund's Adjuvant (CFA) (100 μl, s.c., base of the tail injection), animals (n=8) in group “200 μg” received 200 μg mMOG35-55 in CFA. At day zero and day2, all animals received an injection of Pertussis toxin (200 ng in PBS, i.p.). Every day, clinical EAE was scored and animal body weight measured.

[5] = system: HLA-DR2 transgenic mice; assay: Ex vivo tolerance assay: recall proliferation with MOG 35-55 after peptide pre-treatment and MOG 35-55/CFA challenge; details: 100 μg on days -8, -4 and -2; challenge 100 μg MOG 35-55 in CFA day 0; harvest day 10; FIG. 2
Experimental: (§2) HLA-DR2 transgenic mice were immunised with either 100 μg ROK5 (MOG 41-55), 100 μg MOG 35-55 or PBS on days −8, −4 and −2. On day 0, mice were challenged with 100 μg MOG 35-55 by injection in the tail base in combination with CFA.
On day 10, splenocytes and draining lymph nodes were harvested and their respective cell populations isolated and a recall proliferation assay was set up with MOG 35-55. Cells from individual mice were treated separately and data is plotted separately in FIG. 2. For the recall response cells were treated ex vivo with a dose range of MOG35-55 (100, 10, 1, 0.1, 0.01, 0 μg) and proliferation via ^3H-thymidine incorporation determined. Stimulation index (compared to proliferation with no antigen) was calculated for each condition.

[6] = system: HLA-DR2 transgenic mice; assay: ROK5 EAE prevention, first experiment (3 pre-treatments); assay type: in vivo; details: pretreated 3 times, FIG. 6; for severity of the disease induced by MOG (clinical EAE score): 3 days apart, 100 μg s.c. flank, EAE by 200 μg mMOG35-55
Experimental: as §1
Experiment 1: with 3 ROK5 dose pre-treatments, followed by immunisation with mMOG35-55.
(§3) In each experiment, 10 mice were used per group.
(§4) A first experiment was performed where animals were pretreated 3 times (3 days apart) with either mouse ROK5, human ROK5 or PBS, 100 μg in 100 μl in CFA (s.c. injection in the flank), then all animals were immunised with 200 μg mMOG35-55 in CFA (s.c. injection at the base of the tail) and with 200 ng Pertussis toxin (200 ng in PBS, i.p.) at day zero and day 2.
Every day, clinical EAE was scored and animal body weight measured.

[7] = system: splenocytes; assay: Cytokine profiles of splenocyte supernatants after in vivo ROK5 pre-treatment, MOG35-55 immunisation and in vitro recall; parameters: species or system mice; details: ROK5 pretreatment vs PBS; FIG. 3
Experimental: as §2
The effect of ROK5 pre-treatment on various cytokine profiles was also investigated.

[8] = system: HLA-DR2 transgenic mice; assay: ROK5 EAE prevention, second experiment (5 pre-treatments); assay type: in vivo; details: pretreated 5 times, 3 days apart, 100 μg s.c. flank; EAE by 200 μg mMOG35-55; FIG. 7
Experimental: as §1
Experiment 2: with 5 ROK5 dose pre-treatments, followed by immunisation with mMOG35-55.
as §3
as §4, with “A second” for “A first”, “pretreated 5” for “pretreated 3”, “either” for “either mouse ROK5,”, “2. Every day, clinical EAE was scored.” for “2.”

[9] = 100 μg mMOG35-55 in CFA s.c. base of tail, n=7
[10] = 200 μg mMOG35-55 in CFA s.c. base of tail, n=8

With “FSRVVHLYRNGKDQD (listed as Homo sapiens) [MOG 44-58, MOG peptide 44-58, apitope]” as the substance, how does the identification as apitope [1] read?
Its identification as apitope is “identified as apitopes”.

With “MBP [89-101]: myelin basic protein peptide 89-101, immunodominant antigen, not tolerogenic (PHLIRLFSRDAPG; UniProt P04370 89-101, looked up, fragment)” as the substance, how does the induction of tolerance [2] read?
The induction of tolerance was “ineffective at inducing tolerance”.

What about the “affinity of binding to I-A^S” value [3] of the same substance?
Its value is “relatively high affinity”.

For “MEVGWYRSPFSRVVHLYRNGK (listed as Mus musculus) [mMOG35-55, encephalitogenic MOG peptide used to induce EAE]”, which “Incidence (EAE)” value [4, 9] is on record?
Its value is 4/7.

What about the “Mean day of onset (EAE)” value [4, 9] of the same substance?
Its value is 12.25 days.

And the “Incidence (EAE)” value [4, 10]?
The value was 7/8.

What about the “Mean day of onset (EAE)” value [4, 10] of the same substance?
The value was 12 days.

And the “induction of EAE” value ([4]; both doses (100 μg and 200 μg), FIGS. 5A, 5B)?
The value was “can induce EAE with a good incidence”.

With “PFSRVVHLYRNGKDQ (listed as Homo sapiens) [MOG 43-57, MOG peptide 43-57, apitope]” as the substance, how does the identification as apitope [1] read?
Its identification as apitope is “identified as apitopes”.

Which “immune response to challenge with MOG 35-55 (recall proliferation, stimulation index)” value [5] does the source give for “RPPFSRVVHLYRNGK (listed as Homo sapiens) [ROK5, human MOG peptide 41-55, apitope]” here?
Its value is “able to suppress the immune response”.

And the “efficiency of human ROK5 compared with mouse ROK5 in reducing EAE severity” value ([6]; 100 μg)?
The value was “more efficient”.

What about the “severity of the disease induced by MOG (clinical EAE score)” value [6] of the same substance?
Its value is “can reduce the severity of the disease”.

And the “production of GM-CSF by splenocytes” value [7]?
Its value is “clearly affected”.

And the “production of IFNγ by splenocytes” value [7]?
Its value is “clearly affected”.

And the “production of IL6 by splenocytes” value [7]?
Its value is “clearly affected”.

And the “production of IL-2 by splenocytes” value [7]?
Its value is “clearly affected”.

And the “peak of disease burden (timing)” value [8]?
Its value is “caused a delay in the peak of disease burden”.

And the “severity of disease (clinical EAE score)” value [8]?
Its value is “reduced the severity of disease”.

And the “presentation by fixed APC to T cells without further processing (apitope)” value ([1]; 15-mer peptides displaced by 5aa, fixed APC)?
Its value is “could be presented by fixed APC to T cells without further processing”.

And the identification as apitope [1]?
The identification as apitope was “identified as apitopes”.

For “RSPFSRVVHLYRNGK (listed as Mus musculus) [mouse ROK5, mouse MOG 41-55, serine in position 42]”, which “severity of the disease induced by MOG (clinical EAE score)” value [6] is on record?
Its value is “can reduce the severity of the disease”.

For “SRVVHLYRNGKDQDG (listed as Homo sapiens) [MOG 45-59, MOG peptide 45-59, apitope]”, which identification as apitope [1] is on record?
Its identification as apitope is “identified as apitopes”.
